Assay results published in patent US20110301200A1, “THYROID RECEPTOR LIGANDS” (CADILA HEALTHCARE LIMITED, priority 2008, published 2011).

Key:
TR-α = molecular target: T1, TR-α (Homo sapiens, UniProt P10827); experiment: In vitro TR-α activity (in-house protocol); type: cell-based; details: for fold induction at 0.001 µM: Conc. 1 nM; for fold induction at 0.001 µM / fold induction at 0.01 µM / fold induction at 0.1 µM / fold induction at 1 µM: read-out: TR-α Fold Induction w.r.t T3(100 nm); for fold induction at 0.01 µM: Conc. 10 nM; for fold induction at 0.1 µM: Conc. 100 nM; for fold induction at 1 µM: Conc. 1000 nM
T1 sequence (P10827 1-410 isoform P10827-2): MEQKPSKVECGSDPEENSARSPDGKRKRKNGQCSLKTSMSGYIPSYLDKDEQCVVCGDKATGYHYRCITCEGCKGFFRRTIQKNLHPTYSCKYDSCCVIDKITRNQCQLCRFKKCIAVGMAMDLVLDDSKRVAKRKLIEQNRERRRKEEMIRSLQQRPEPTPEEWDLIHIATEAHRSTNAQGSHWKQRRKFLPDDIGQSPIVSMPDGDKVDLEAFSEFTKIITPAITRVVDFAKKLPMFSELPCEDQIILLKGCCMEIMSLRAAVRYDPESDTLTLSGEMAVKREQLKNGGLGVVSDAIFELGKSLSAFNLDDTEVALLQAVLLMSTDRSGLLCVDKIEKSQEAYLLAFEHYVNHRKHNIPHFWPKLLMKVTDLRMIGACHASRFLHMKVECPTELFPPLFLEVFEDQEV
Description: (§1) In vitro TR-α & TR-β activities were determined as per in-house protocols and the results of representative compounds are provided in tables 1 & 2 below as a proof of the efficacies of the novel class of compounds disclosed above.

TR-β = molecular target: T2, TR-β (Homo sapiens, UniProt P10828); experiment: In vitro TR-β activity (in-house protocol); type: cell-based; details: for fold induction at 0.001 µM: Conc. 1 nM; for fold induction at 0.001 µM / fold induction at 0.01 µM / fold induction at 0.1 µM / fold induction at 1 µM: read-out: TR-β Fold Induction w.r.t T3(100 nm); for fold induction at 0.01 µM: Conc. 10 nM; for fold induction at 0.1 µM: Conc. 100 nM; for fold induction at 1 µM: Conc. 1000 nM
T2 sequence (P10828 1-461): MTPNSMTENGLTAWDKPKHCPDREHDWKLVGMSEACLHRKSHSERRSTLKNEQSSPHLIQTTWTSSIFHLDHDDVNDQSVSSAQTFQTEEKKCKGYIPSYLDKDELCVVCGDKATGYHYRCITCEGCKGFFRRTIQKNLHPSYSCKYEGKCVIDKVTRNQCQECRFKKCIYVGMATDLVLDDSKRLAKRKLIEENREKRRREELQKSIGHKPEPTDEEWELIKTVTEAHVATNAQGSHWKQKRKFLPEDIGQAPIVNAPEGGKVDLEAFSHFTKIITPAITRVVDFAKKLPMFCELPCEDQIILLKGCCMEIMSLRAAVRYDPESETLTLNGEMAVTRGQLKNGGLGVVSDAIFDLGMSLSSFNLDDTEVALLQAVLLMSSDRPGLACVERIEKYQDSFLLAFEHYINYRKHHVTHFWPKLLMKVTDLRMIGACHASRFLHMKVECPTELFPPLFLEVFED
Description: as §1

| SMILES | EC50 (TR-α) [nM] | EC50 (TR-β) [nM] | fold induction at 0.001 µM (TR-α) | fold induction at 0.01 µM (TR-α) | fold induction at 0.1 µM (TR-α) | fold induction at 1 µM (TR-α) | fold induction at 0.001 µM (TR-β) | fold induction at 0.01 µM (TR-β) | fold induction at 0.1 µM (TR-β) | fold induction at 1 µM (TR-β) |
| --- | --- | --- | --- | --- | --- | --- | --- | --- | --- | --- |
| CC(ON=Cc1cc(Br)c(Oc2ccc(O)c(Cc3ccccc3)c2)c(Br)c1)C(=O)O (centres unmarked) [Example 16, 2-(((4-(3-benzyl-4-hydroxyphenoxy)-3,5-dibromobenzylidene)amino)oxy)propanoic acid] |  |  | 19.1 | 29.4 | 119 | 161 | 12 | 31.7 | 54.3 | 70.5 |
| CCC(C)c1cc(Oc2c(Br)cc(C=NOC(C(=O)O)c3ccccc3)cc2Br)ccc1O (centres unmarked) [Example 18, 2-(((3,5-dibromo-4-(3-(sec-butyl)-4-hydroxyphenoxy)benzylidene)amino)oxy)-2-phenylacetic acid] |  |  | 15.5 | 36 | 77 | 90.4 | 13.8 | 20.8 | 69.5 | 122 |
| CCC(C)c1cc(Oc2c(Br)cc(C=NOCC(=O)O)cc2Br)ccc1O (centres unmarked) [Example 6, 2-(((3,5-dibromo-4-(3-(sec-butyl)-4-hydroxyphenoxy)benzylidene)amino)oxy)acetic acid] |  |  | 11.6 | 39.8 | 60.6 | 64.9 | 15.9 | 37.1 | 84 | 74.6 |
| CCC(C)c1cc(Oc2c(Cl)cc(C=NOCC(=O)O)cc2Cl)ccc1O (centres unmarked) [Example 2, 2-(((4-(3-(sec-butyl)-4-hydroxyphenoxy)-3,5-dichlorobenzylidene)amino)oxy)acetic acid] |  |  | 10.2 | 26.7 | 66.7 | 108 | 14 | 34.5 | 79.4 | 115 |
| O=C(O)CON=Cc1cc(Br)c(Oc2ccc(O)c(Cc3ccccc3)c2)c(Br)c1 [Example 9, 2-(((4-(3-benzyl-4-hydroxyphenoxy)-3,5-dibromobenzylidene)amino)oxy)acetic acid] |  |  | 10.7 | 10.7 | 23.8 | 64.8 | 11.5 | 17.6 | 60.2 | 98.8 |
| CC(C)(ON=Cc1cc(Br)c(Oc2ccc(O)c(-c3ccccc3)c2)c(Br)c1)C(=O)O [Example 20, 2-(((3,5-dibromo-4-((6-hydroxy-[1,1′-biphenyl]-3-yl)oxy)benzylidene)amino)oxy)-2-methyl propanoic acid] |  |  | 9.45 | 13.1 | 34.5 | 74.3 | 8.98 | 14.8 | 46 | 98.6 |
| CC(C)c1cc(Oc2c(Br)cc(C=NOC(C)(C)C(=O)O)cc2Br)ccc1O [Example 12, 2-(((3,5-dibromo-4-(4-hydroxy-3-isopropylphenoxy)benzylidene)amino)oxy)-2-methylpropanoic acid] |  |  | 24 | 59.9 | 88.7 | 110 | 39 | 65.4 | 119 | 67.4 |

Results, then the molecule that gave them:

| EC50 (TR-α) [nM] | EC50 (TR-β) [nM] | fold induction at 0.001 µM (TR-α) | fold induction at 0.01 µM (TR-α) | fold induction at 0.1 µM (TR-α) | fold induction at 1 µM (TR-α) | fold induction at 0.001 µM (TR-β) | fold induction at 0.01 µM (TR-β) | fold induction at 0.1 µM (TR-β) | fold induction at 1 µM (TR-β) | SMILES |
| --- | --- | --- | --- | --- | --- | --- | --- | --- | --- | --- |
| 143 | 166 |  |  |  |  |  |  |  |  | CC(ON=Cc1cc(Br)c(Oc2ccc(O)c(C(=O)c3cccc(Cl)c3)c2)c(Br)c1)C(=O)O (centres unmarked) [Example 30, 2-(((3,5-dibromo-4-(3-(3-chlorobenzoyl)-4-hydroxyphenoxy)benzylidene)amino)oxy)propanoic acid] |
|  |  | 12.6 | 12.8 | 17.7 | 46.1 | 6.51 | 6.74 | 14 | 58.1 | O=C(O)CON=Cc1cc(Br)c(Oc2ccc(O)c(S(=O)(=O)N3CCCC3)c2)c(Br)c1 [Example 41, 2-(((3,5-dibromo-4-(4-hydroxy-3-(pyrrolidin-1-ylsulfonyl)phenoxy)benzylidene)amino)oxy)acetic acid] |
|  |  | 20.4 | 16.8 | 22.8 | 69.8 | 11.8 | 12.9 | 14.5 | 65 | O=C(O)CON=Cc1cc(Br)c(Oc2ccc(O)c(C(O)c3ccc(Br)cc3)c2)c(Br)c1 (centres unmarked) [Example 32, 2-(((3,5-dibromo-4-(3-((4-bromophenyl)(hydroxy)methyl)-4-hydroxyphenoxy)benzylidene)amino)oxy)acetic acid] |
|  |  | 13.7 | 17.2 | 38.3 | 39.2 | 11.8 | 14.3 | 41.5 | 50.3 | O=C(O)CON=Cc1cc(Br)c(Oc2ccc(O)c(C(=O)c3ccc(Br)cc3)c2)c(Br)c1 [Example 31, 2-(((3,5-dibromo-4-(3-(4-bromobenzoyl)-4-hydroxyphenoxy)benzylidene)amino)oxy)acetic acid] |
|  |  | 10.6 | 11.8 | 13.5 | 29.5 | 11.5 | 11.2 | 15.8 | 40.4 | CC(ON=Cc1cc(Br)c(Oc2ccc(O)c(S(=O)(=O)NC3CCCCC3)c2)c(Br)c1)C(=O)O (centres unmarked) [Example 39, 2-(((3,5-dibromo-4-(3-(N-cyclohexylsulfamoyl)-4-hydroxyphenoxy)benzylidene)amino)oxy)propanoic acid] |
|  |  | 12.1 | 27.2 | 48.6 | 85.1 | 9.09 | 24.9 | 44.9 | 73.9 | CC(C)(ON=Cc1cc(Br)c(Oc2ccc(O)c(Cc3ccccc3)c2)c(Br)c1)C(=O)O [Example 22, 2-(((4-(3-benzyl-4-hydroxyphenoxy)-3,5-dibromobenzylidene)amino)oxy)-2-methylpropanoic acid] |
|  |  | 14.1 | 15.4 | 57.8 | 128 | 11 | 19.7 | 58.2 | 107 | CC(ON=Cc1cc(Br)c(Oc2ccc(O)c(S(=O)(=O)N3CCCCC3)c2)c(Br)c1)C(=O)O (centres unmarked) [Example 36, 2-(((3,5-dibromo-4-(4-hydroxy-3-(piperidin-1-ylsulfonyl)phenoxy)benzylidene)amino)oxy)propanoic acid] |
|  |  | 12.1 | 13.9 | 34.9 | 64.5 | 9.62 | 13.2 | 41.2 | 76.2 | CC(ON=Cc1cc(Br)c(Oc2ccc(O)c(C(=O)c3ccc(Cl)cc3)c2)c(Br)c1)C(=O)O (centres unmarked) [Example 26, 2-(((3,5-dibromo-4-(3-(4-chlorobenzoyl)-4-hydroxyphenoxy)benzylidene)amino)oxy)propanoic acid] |
|  |  | 13.2 | 14.4 | 45.2 | 76.4 | 10.1 | 16.4 | 29.1 | 107 | CC(ON=Cc1cc(Br)c(Oc2ccc(O)c(C(O)c3ccc(Cl)cc3)c2)c(Br)c1)C(=O)O (centres unmarked) [Example 27, 2-(((3,5-dibromo-4-(3-((4-chlorophenyl)(hydroxy)methyl)-4-hydroxyphenoxy)benzylidene)amino)oxy)propanoic acid] |
